Measurements reported in patent US20050197372A1 (priority 2002, published 2005).

Key:
Format in all cases: cell-based, human
[1] = test system: platelet/endothelial tetraspan antigen -3 (PETA-3, CD151); experiment: Whole blood flow cytometry, PETA-3 expression; conditions: for Expression of platelet/endothelial tetraspan antigen -3 (PETA-3, CD151): baseline 88.7 ± 24.2
Experimental: (§1) None of them received aspirin or any other anti-platelet agents. All subjects underwent blood sampling after at least 30 minutes of rest and 2 or more hours of fasting. Blood was drawn between 8 and 10 a.m. in order to avoid any diurnal influence and sampled from an antecubital vein using a 21-gauge butterfly needle containing 3.8% sodium citrate (1:9 volume) after having discarded the first 1.5 ml of free running blood. Eleven Vacutainer tubes (4.5 ml) were collected for a total of 49 ml of whole blood-citrate mixture from each study participant. One tube was kept as an internal control and was incubated with buffer solution. […] To avoid possible observer bias, blood samples were coded and blinded. Sampling procedures, and platelet studies were performed by individuals unaware of the protocol.
(§2) The expression of platelet receptors was determined by using the following monoclonal antibodies: CD31 (platelet endothelial cell adhesion molecule (PECAM-1), CD41 (glycoprotein [GP] IIb/IIIa, (IIb (3), CD42b (GP Ib), CD 51/CD61 ((v (3, or vitronectin receptor), CD62p (P-selectin), CD107a (lysosome associated membrane protein-1; LAMP-1), CD 107b (LAMP-2), CD151 (platelet/endothelial tetraspan antigen-3; PETA-3), and PAC-1 for fibrinogen-platelet (PharMingen, San Diego, Calif.). Platelet-leukocyte interactions were assessed by using dual antibodies for a pan-platelet marker (CD 151), together with CD14, a monocyte/macrophage marker. The blood-citrate mixture (50 μl) was diluted with 450 μl Tris buffered saline (TBS) (10 mmol/L Tris, 0.15 mol/L sodium chloride) and mixed by gently inverting an Eppendorf tube 2 times. Five μl of the corresponding antibodies were then added to each solution and the samples were incubated for 30 minutes. After incubation, 400 μl of 2% buffered paraformaldehyde was added for fixation. The samples were analyzed by a Becton Dickinson FACScan flow cytometer set up to measure fluorescent light scatter, as described in Gurbel P A, et al., J Am Coll Cardiol. 1998; 31: 1466-1473. The data were collected in list mode files and then analyzed. P selectin was expressed as percent positive cells as described in Gurbel P A, et al, Am Heart J 2000; 139: 320-328. Other antigens were expressed as log mean fluorescence intensity.

[2] = test system: Glycoprotein IIb/IIIa activity (fibrinogen binding, PAC-1); experiment: Whole blood flow cytometry, GP IIb/IIIa activity (PAC-1); conditions: for Glycoprotein IIb/IIIa activity (fibrinogen binding, PAC-1): baseline 10.3 ± 2.8
Experimental: as §1, §2

[3] = test system: lysosome associated membrane protein -1 (LAMP-1, CD107a); experiment: Whole blood flow cytometry, LAMP-1 expression; conditions: baseline 8.7 ± 3.2
Experimental: as §1, §2

[4] = test system: platelet/endothelial cell adhesion molecule-1 (PECAM-1, CD31); experiment: Whole blood flow cytometry, PECAM-1 expression; conditions: for Expression of platelet/endothelial cell adhesion molecule-1 (PECAM-1, CD31): baseline 69.2 ± 10.3
Experimental: as §1, §2

[5] = test system: platelet glycoprotein IIb/IIIa antigen (GPIIb, CD41); experiment: Whole blood flow cytometry, GP IIb/IIIa antigen expression; conditions: for Expression of platelet glycoprotein IIb/IIIa antigen (GPIIb, CD41): baseline 521.8 ± 98.2
Experimental: as §1, §2

[6] = test system: platelet-leukocyte microparticles (CD151 + CD14); experiment: Whole blood flow cytometry, platelet-leukocyte microparticles; conditions: for Formation of platelet-leukocyte microparticles (CD151 + CD14): baseline 92.2 ± 19.3
Experimental: as §1, §2

[7] = test system: platelet vitronectin receptor (CD51/CD61); experiment: Whole blood flow cytometry, vitronectin receptor expression; conditions: whole blood flow cytometry
Experimental: as §1, §2

[8] = test system: platelets (agglutination with fibrinogen-coated beads); experiment: Ultegra rapid platelet-function assay (RPFA-ASA); conditions: baseline 159 ± 27
Experimental: as §1
A rapid platelet-function assay cartridge test (RPFA-ASA, Ultegra® Accumetrics, Inc., San Diego, Calif., USA), using polystyrene beads coated cartridges with lyophilized human fibrinogen-coated microparticles, and propyl gallat served as an agonist. The whole blood citrate mixture was added to the cartridge, and agglutination between platelets and coated beads was recorded. The data mirrored turbidometric platelet aggregation and reflected the degree of platelet prostaglandin blockade. Smith J W, et al., Circulation 1999; 99: 620-625. Ultegra® assays were performed in duplicate. An electronic quality control test was performed on each instrument every day of use prior to performing any subject samples.

[9] = test system: glycoprotein Ib (GPIb, CD42b); experiment: Whole blood flow cytometry, GP Ib expression; conditions: for Expression of glycoprotein Ib (GPIb, CD42b): baseline 246.4 ± 26.7
Experimental: as §1, §2

[10] = test system: shear-induced platelet aggregation; experiment: PFA-100 closure time, epinephrine/collagen cartridge; conditions: baseline 201 ± 22
Experimental: as §1
The platelet function analyzer (PFA-100′, Dade Behring, Deerfield, Ill.) is a device that simulates changes in primary hemostasis after injury to a small vessel under flow conditions. Kundu S K, et al., Semin Thromb Hemost 1995; 21(Suppl 2): 106-112. The time required to obtain occlusion of the aperture was digitally recorded as a measure of shear-induced platelet aggregation. Closure time determinations were performed in duplicate.

## CCCCC(=O)N(Cc1ccc(-c2ccccc2-c2nnn[nH]2)cc1)[C@H](C(=O)O)C(C)C [Valsartan, (S)-N-(1-carboxy-2-methyl-prop-1-yl)-N-pentanoyl-N-[2;(1H-tetrazol-5-yl)biphenyl-4-yl-methyl]amine, reference compound]
[1]; drug 10 nM
  Expression of platelet/endothelial tetraspan antigen -3 (PETA-3, CD151): 84.1 ± 19.7 log MFI
[1]; drug 100 nM
  Expression of platelet/endothelial tetraspan antigen -3 (PETA-3, CD151): 91.5 ± 23.4 log MFI
[1]; drug 1 μM
  Expression of platelet/endothelial tetraspan antigen -3 (PETA-3, CD151): 81.6 ± 20.1 log MFI
[1]; drug 10 μM
  Expression of platelet/endothelial tetraspan antigen -3 (PETA-3, CD151): 87.9 ± 18.3 log MFI
[1]; drug 100 μM
  Expression of platelet/endothelial tetraspan antigen -3 (PETA-3, CD151): 91.7 ± 22.1 log MFI
[1]; whole blood flow cytometry
  Effect on PETA-3 (CD151) (in words): not associated with any effect
[2]; drug 10 nM
  Glycoprotein IIb/IIIa activity (fibrinogen binding, PAC-1): 9.3 ± 2.87 log MFI
[2]; drug 100 nM
  Glycoprotein IIb/IIIa activity (fibrinogen binding, PAC-1): 11.2 ± 3.4 log MFI
[2]; drug 1 μM
  Glycoprotein IIb/IIIa activity (fibrinogen binding, PAC-1): 7.0 ± 2.9 log MFI
[2]; drug 10 μM
  Glycoprotein IIb/IIIa activity (fibrinogen binding, PAC-1): 6.9 ± 2.7 log MFI
[2]; drug 100 μM
  Glycoprotein IIb/IIIa activity (fibrinogen binding, PAC-1): 9.9 ± 3.1 log MFI
[2]; whole blood flow cytometry
  Effect on fibrinogen binding (PAC-1) (in words): slightly reduced
[3]; drug 10 nM
  Expression of lysosome associated membrane protein -1 (LAMP-1, CD107a): 9.1 ± 3.8 log MFI
[3]; drug 100 nM
  Expression of lysosome associated membrane protein -1 (LAMP-1, CD107a): 8.9 ± 2.7 log MFI
[3]; drug 1 μM
  Expression of lysosome associated membrane protein -1 (LAMP-1, CD107a): 9.4 ± 3.9 log MFI
[3]; drug 10 μM
  Expression of lysosome associated membrane protein -1 (LAMP-1, CD107a): 6.5 ± 3.2 log MFI
[3]; drug 100 μM
  Expression of lysosome associated membrane protein -1 (LAMP-1, CD107a): 10.1 ± 4.5 log MFI
[4]; drug 10 nM
  Expression of platelet/endothelial cell adhesion molecule-1 (PECAM-1, CD31): 71.8 ± 11.9 log MFI
[4]; drug 100 nM
  Expression of platelet/endothelial cell adhesion molecule-1 (PECAM-1, CD31): 70.6 ± 12.6 log MFI
[4]; drug 1 μM
  Expression of platelet/endothelial cell adhesion molecule-1 (PECAM-1, CD31): 74.5 ± 16.2 log MFI
[4]; drug 10 μM
  Expression of platelet/endothelial cell adhesion molecule-1 (PECAM-1, CD31): 68.2 ± 16.2 log MFI
[4]; drug 100 μM
  Expression of platelet/endothelial cell adhesion molecule-1 (PECAM-1, CD31): 70.6 ± 15.8 log MFI
[4]; whole blood flow cytometry
  Effect on PECAM-1 (CD31) (in words): not associated with any effect
[5]; drug 10 nM
  Expression of platelet glycoprotein IIb/IIIa antigen (GPIIb, CD41): 531.2 ± 102.5 log MFI
[5]; drug 100 nM
  Expression of platelet glycoprotein IIb/IIIa antigen (GPIIb, CD41): 502.9 ± 112.7 log MFI
[5]; drug 1 μM
  Expression of platelet glycoprotein IIb/IIIa antigen (GPIIb, CD41): 498.2 ± 94.5 log MFI
[5]; drug 10 μM
  Expression of platelet glycoprotein IIb/IIIa antigen (GPIIb, CD41): 506.7 ± 100.1 log MFI
[5]; drug 100 μM
  Expression of platelet glycoprotein IIb/IIIa antigen (GPIIb, CD41): 455.2 ± 99.6 log MFI
[5]; whole blood flow cytometry
  Effect on expression of GP IIb/IIIa (CD 41) (in words): decreased expression of CD41 only at a high dose
[6]; drug 10 nM
  Formation of platelet-leukocyte microparticles (CD151 + CD14): 91.2 ± 20.5 log MFI
[6]; drug 100 nM
  Formation of platelet-leukocyte microparticles (CD151 + CD14): 88.4 ± 21.9 log MFI
[6]; drug 1 μM
  Formation of platelet-leukocyte microparticles (CD151 + CD14): 93.5 ± 23.8 log MFI
[6]; drug 10 μM
  Formation of platelet-leukocyte microparticles (CD151 + CD14): 96.5 ± 18.7 log MFI
[6]; drug 100 μM
  Formation of platelet-leukocyte microparticles (CD151 + CD14): 90.5 ± 19.2 log MFI
[6]; whole blood flow cytometry
  Effect on platelet-leukocyte microparticles (CD151+14) (in words): not associated with any effect
[7]
  Effect on expression of vitronectin receptors (in words): moderately reduced
[8]; drug 10 nM
  Ultegra Analyzer: 164 ± 16 platelet activation units
[8]; drug 100 nM
  Ultegra Analyzer: 160 ± 29 platelet activation units
[8]; drug 1 μM
  Ultegra Analyzer: 129 ± 26 platelet activation units
[8]; drug 10 μM
  Ultegra Analyzer: 130 ± 31 platelet activation units
[8]; drug 100 μM
  Ultegra Analyzer: 152 ± 19 platelet activation units
[9]; drug 10 nM
  Expression of glycoprotein Ib (GPIb, CD42b): 256.4 ± 31.4 log MFI
[9]; drug 100 nM
  Expression of glycoprotein Ib (GPIb, CD42b): 248.7 ± 20.9 log MFI
[9]; drug 1 μM
  Expression of glycoprotein Ib (GPIb, CD42b): 264.8 ± 18.2 log MFI
[9]; drug 10 μM
  Expression of glycoprotein Ib (GPIb, CD42b): 244.3 ± 46.9 log MFI
[9]; drug 100 μM
  Expression of glycoprotein Ib (GPIb, CD42b): 255.9 ± 19.7 log MFI
[9]; whole blood flow cytometry
  Effect on GP Ib (CD42) (in words): not associated with any effect
[10]; drug 10 nM
  PFA-100 closure time with the epinephrine/collagen cartridge: 187 ± 30 s
[10]; drug 100 nM
  PFA-100 closure time with the epinephrine/collagen cartridge: 209 ± 21 s
[10]; drug 1 μM
  PFA-100 closure time with the epinephrine/collagen cartridge: 268 ± 19 s
[10]; drug 10 μM
  PFA-100 closure time with the epinephrine/collagen cartridge: 278 ± 20 s
[10]; drug 100 μM
  PFA-100 closure time with the epinephrine/collagen cartridge: 200 ± 27 s
